Test results reported in ChEMBL document CHEMBL4229361, “A novel tetrahydroisoquinoline (THIQ) analogue induces mitochondria-dependent apoptosis” (Eur J Med Chem, 2018).

Tested on: A549
Assay: Antiproliferative activity against human A549 cells after 48 hrs by CCK-8 assay
Type: functional, cell-based
Details: A549, 48 h

IC50	SMILES
22.4 µM	C(#CC1NCCc2cc(OCc3ccccc3)c(OCc3ccccc3)cc21)c1ccccc1 (configuration not stated)
40.1 µM	COc1cc2c(cc1OC)C(C#Cc1ccccc1)NCC2 (configuration not stated)
